For series [1], the system named is Human Glioblastoma Cancer (U-87MG) xenograft. In words: Histopathology of tumor samples with scoring. It is filed as in vivo, athymic nude mice. Also on record: key: 1: Minimal Fibrosis; 2: Mild Fibrosis; 3: Moderate Fibrosis; 4: Prominent. To be noted: individual animals; G3 APT20TTMG, G2 TMZ. The source says:
The fixed tissues were processed for routine paraffin embedding followed by sectioning (3-6 micron). The sections were stained with hematoxylin and eosin. The prepared slides were examined under microscope by the study pathologist to record histopathological findings in tumor samples, related to capsule formation, cell type, connective tissue stroma, apoptosis, necrosis, lipid content, nucleus-to-cytoplasmic (N:C) ratio, nuclei mitotic figures, tumor grade, and level of differentiation. Each histopathological finding and tumor volume were assigned a score ranging from 1 to 4 (Table 7). The sum of these scores for each sample was used to infer the tumor aggressiveness.

In a further series the test system is TAU protein. Briefly: Tau quantification by Western blot in SK-N-SH. Conditions: 0.5 μM. It is filed as cell-based. On the procedure: FIG. 27A-27B illustrates MAPT expression and tau quantification obtained after 24, 48, 96 and 144 hours of incubation with ASMO1 (0.5 μM) in neuroblastoma cell line.
Cells were rinsed once with ice-cold PBS, collected, and pelleted by centrifugation at 2500 g for 5 minutes at 4° C. Each sample was re-suspended and lysed in 50 μl ice-cold radioimmunoprecipitation assay (RIPA) buffer (Thermo Fisher Scientific, USA) containing EDTA-free Halt protease and phosphatase inhibitor cocktail mixture (Thermo Fisher Scientific, USA) for 20 min at 4° C. To increase protein yields, each sample was homogenized using a 29 G×13 mm needle and syringe. Cell lysates were clarified by centrifugation at 17,000 g for 15 minutes at 4° C. Supernatants were collected and total protein concentration was determined using the BCA protein assay kit (Thermo Fisher Scientific, USA) according to the manufacturer's instructions. 15 μg of total protein in cell lysates were denatured in NuPAGE LDS sample buffer (Thermo Fisher Scientific, USA) with NuPAGE sample reducing agent (DTT; Thermo Fisher Scientific, USA) and boiled at 90° C. for 5 minutes. […] Densitometry using Image J (v1.48k; NIH) was performed and all quantification was standardized against vinculin levels.
On the technique in general: A western blot detects proteins with antibodies after separation by electrophoresis.

The next series relates to MCF-7 cell line. In words: Internalization of carboxyfluorescein-conjugated APT20TTMG by flow cytometry. Conditions: 1 μM carboxyfluorescein conjugate. It is filed as cell-based, Human. The method, then:
To investigate the internalization of ASMO APT20TTMG by MCF-7 cell line, the quantification of intracellular fluorescence was measured by flow cytometry. For this aim, the ASMO APT20TTMG was conjugated to the fluorochrome carboxyfluorescein. It is assumed that the percentage of ASMO molecules internalized is presumably proportional to the quantified fluorescence signal detected inside the cells. The cell lines were cultured in 24-well plates for 24 hours at 5×10^4 cells per well. After that, the cells were incubated with ASMO1 prepared in culture medium without FBS at a concentration of 1 μM for 0.5, 1, 2, 4, and 6 hours. Untreated cells were used as negative controls. After treatment incubation, cells were washed twice with 1 mL of PBS/well and then incubated with 200 μL/well of trypsin/EDTA solution for approximately 3 minutes for disaggregation of adherent cells. Trypsin was neutralized by the addition of complete medium and cells were centrifuged at 1500 rpm for 5 minutes. Subsequently, the cells were washed with 2 mL/sample of PBS and centrifuged again at 1500 rpm for 5 minutes. […] The fluorescence of the cells, corresponding to the cellular uptake of the APT20TTMG labeled with carboxyfluorescein, was analyzed using a BD FACSCANTO II Flow cytometer (BD Biosciences, NJ, USA) through the acquisition of 10.000 gated events considering each sample.
Background: Flow cytometry measures light scatter and fluorescence of single cells or particles in a stream.

For a further series, the system named is SH-SY5Y cell line. In words: Apoptosis/necrosis phase distribution. It is filed as cell-based, Human. To be noted: 0.25 μM; 24 hours.

d = 2'-deoxy (DNA); m = 2'-O-methyl

“APT20TTMG: engineered polynucleotide ASMO1, 24 nt, SEQ ID NO: 3 gtccactaacctttcaggccagcg; targeting moieties 5′-GTCCA-3′ and 5′-CG-3′, U1 snRNP recruiting moiety (GTCCACTAACCTTTCAGGCCAGCG; sugars from the 5' end m5 d14 m5, all phosphorothioate, methylation of C and T or U not given here)”: in series [1], the “Score: Necrosis” value was found to be 4. Also, the “reduction of tau protein quantification” value is 40±13.3% with TAU protein (first of 'the two highest concentrations' as printed (parallel to 96 h)) and 46±14.3% in the series on TAU protein (second of 'the two highest concentrations' as printed (parallel to 144 h)). Besides, the internalization result was “around 80%” with MCF-7 cell line (after 1 hour and subsequent period (to 6 h)); 75.3±1.4% with MCF-7 cell line (first half hour). In the series with SH-SY5Y cell line, the necrotic cells result is listed as “increase in necrotic cells”.

The values are drawn from patent US20260085315A1, “POLYNUCLEOTIDE COMPOSITIONS AND METHODS FOR TREATMENT OF CANCER” (APTAH BIO, INC., priority 2023, published 2026).
